Test results reported in patent US20220267289A1, “SELECTIVE BCRP/ABCG2 TRANSPORTER INHIBITORS AS AGENTS TO ABOLISH RESISTANCE TO ANTI-CANCER AGENTS” (UNIVERSITE GRENOBLE ALPES, priority 2019, published 2022).
Where two headings read alike, the source gives them in different places.

How the values were obtained:
BCRP/ABCG2 = biological target: T1, BCRP/ABCG2 (Homo sapiens, UniProt Q9UNQ0); assay: BCRP-mediated mitoxantrone efflux inhibition, ABCG2-transfected HEK293 cells, flow cytometry; settings: for inhibition at 30 min, 1 μM / inhibition at 30 min, 10 μM / inhibition at 30 min, 1 µM: human, probe mitoxantrone (MX), 4 μM
T1 sequence (Q9UNQ0 1-655): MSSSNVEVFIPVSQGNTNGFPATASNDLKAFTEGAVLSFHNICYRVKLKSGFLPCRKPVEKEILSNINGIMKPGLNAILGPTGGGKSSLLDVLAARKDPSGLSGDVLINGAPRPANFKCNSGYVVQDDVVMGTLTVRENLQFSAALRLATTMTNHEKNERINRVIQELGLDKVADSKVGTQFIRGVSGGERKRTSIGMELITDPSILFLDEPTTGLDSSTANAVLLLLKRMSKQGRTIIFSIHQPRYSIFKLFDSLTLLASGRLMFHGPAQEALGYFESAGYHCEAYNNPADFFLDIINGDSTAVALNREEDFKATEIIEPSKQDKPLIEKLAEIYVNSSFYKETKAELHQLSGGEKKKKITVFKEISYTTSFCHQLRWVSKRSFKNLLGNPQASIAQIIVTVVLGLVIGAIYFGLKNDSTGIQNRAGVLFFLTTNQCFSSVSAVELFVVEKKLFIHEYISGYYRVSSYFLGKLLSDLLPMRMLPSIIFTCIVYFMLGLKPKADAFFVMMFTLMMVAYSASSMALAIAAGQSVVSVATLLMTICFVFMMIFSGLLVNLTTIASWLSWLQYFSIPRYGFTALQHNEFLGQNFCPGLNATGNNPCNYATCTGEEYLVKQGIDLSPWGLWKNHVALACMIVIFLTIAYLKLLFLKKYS
Experimental: The cells were seeded in 96-well plates at a density of 5×10^4 cells/well in 200 μL of medium and incubated overnight. Then the growth medium was changed to fresh medium containing the compounds and in the presence of 4 μM MX as a fluorescent probe for BCRP-mediated efflux at a final concentration of 0.5% (v/v) DMSO. After 30 min incubation at 37° C., the medium was removed, and the cells were washed with 100 μL of Dulbecco's phosphate-buffered saline (DPBS) followed by dissociation of the cells for 5 min at 37° C. mediated by 25 μL trypsin. Finally, trypsin was neutralised with 175 μL of DPBS ice-cold with 2% bovine serum albumin (BSA) and the cells were carefully resuspended. As a selectivity assay, the same experiment was performed for P-gp and MRP1-mediated efflux with 0.5 μM R123 or 0.2 μM cAM as respective fluorescent substrates instead of MX.
Intracellular fluorescence was measured with a MacsQUANT VRB Analyzer flow cytometer (Miltenyi Biotec) with at least 5000 events recorded. While MX was excited at 635 nm and the fluorescence emission recorded in a 655-730 nm window, R123 and cAM were excited at 488 nm and recorded in a 525/50 nm filter. The compound inhibition yield was estimated by the following equation:
where G2FA is the fluorescence emission (a.u.) of accumulated fluorophore in cells expressing the efflux pump incubated with a fluorescent substrate and the test compound. G2FBG is the resulting background fluorescence emission (a.u.) in cells transfected with ABCG2 (no substrate or test compound). G2S is the fluorescence emission (a.u.) of accumulated fluorophore in cells expressing the efflux pump incubated with substrate only. HEKFA is the fluorescence emission (a.u.) of accumulated fluorophore in control cells incubated with the substrate and test compound. HEKFBG is the resulting background fluorescence emission (a.u.) in control cells (no substrate or test compound). All values are given as the geometric mean fluorescence emission (a.u.) in a 655-730 nm filter (635 nm excitation) measured over 5000 events. The tests were performed in triplicate.

P-gp (ABCB1) = biological target: T2, P-gp (ABCB1) (Homo sapiens, UniProt P08183); assay: P-gp-mediated rhodamine 123 efflux inhibition (selectivity assay), ABCB1-transfected NIH/3T3 cells; assay type: cell-based; settings: probe rhodamine 123 (R123), 0.5 μM R123; for inhibition at 30 min, 1 μM: [Inhibitor] 1 μM; for inhibition at 30 min, 10 μM: [Inhibitor] 10 μM
T2 construct: expressed in transfected cells; host or cells: NIH/3T3
T2 sequence (P08183 whole entry): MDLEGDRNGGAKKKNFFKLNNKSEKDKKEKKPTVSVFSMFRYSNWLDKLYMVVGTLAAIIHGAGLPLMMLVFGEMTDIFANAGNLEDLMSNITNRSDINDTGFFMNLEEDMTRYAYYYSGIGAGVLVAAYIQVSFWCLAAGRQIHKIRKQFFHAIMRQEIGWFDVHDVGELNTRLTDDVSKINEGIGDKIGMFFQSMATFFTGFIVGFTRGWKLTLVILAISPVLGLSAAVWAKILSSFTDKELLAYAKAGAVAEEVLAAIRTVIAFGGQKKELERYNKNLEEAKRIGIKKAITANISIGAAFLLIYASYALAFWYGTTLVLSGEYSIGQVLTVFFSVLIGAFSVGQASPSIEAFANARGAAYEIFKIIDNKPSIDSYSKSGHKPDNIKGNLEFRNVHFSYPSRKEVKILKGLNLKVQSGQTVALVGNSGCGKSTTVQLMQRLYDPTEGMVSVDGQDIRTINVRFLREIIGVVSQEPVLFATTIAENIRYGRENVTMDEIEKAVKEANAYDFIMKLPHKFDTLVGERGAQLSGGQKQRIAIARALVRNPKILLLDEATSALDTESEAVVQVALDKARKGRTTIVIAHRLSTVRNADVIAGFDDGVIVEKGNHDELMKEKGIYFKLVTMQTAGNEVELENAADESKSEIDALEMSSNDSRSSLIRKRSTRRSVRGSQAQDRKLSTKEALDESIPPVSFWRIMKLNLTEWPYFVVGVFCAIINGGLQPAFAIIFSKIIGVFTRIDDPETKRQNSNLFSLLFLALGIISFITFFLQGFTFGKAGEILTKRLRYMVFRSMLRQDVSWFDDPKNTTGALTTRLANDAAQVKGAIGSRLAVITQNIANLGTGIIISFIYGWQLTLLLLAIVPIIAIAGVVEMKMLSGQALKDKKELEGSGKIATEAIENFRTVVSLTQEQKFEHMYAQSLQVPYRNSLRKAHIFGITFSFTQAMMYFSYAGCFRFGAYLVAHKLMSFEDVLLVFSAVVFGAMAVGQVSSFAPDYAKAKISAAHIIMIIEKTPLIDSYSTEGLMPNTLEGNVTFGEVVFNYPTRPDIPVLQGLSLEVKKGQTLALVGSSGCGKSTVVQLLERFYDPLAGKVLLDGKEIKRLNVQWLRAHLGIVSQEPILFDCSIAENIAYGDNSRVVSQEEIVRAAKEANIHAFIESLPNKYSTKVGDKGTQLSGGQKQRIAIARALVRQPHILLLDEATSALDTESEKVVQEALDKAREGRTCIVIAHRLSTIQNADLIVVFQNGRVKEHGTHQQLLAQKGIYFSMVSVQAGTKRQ
Experimental: (§1) The tests were performed in triplicate.

MRP1 (ABCC1) = biological target: T3, MRP1 (ABCC1) (Homo sapiens, UniProt P33527); assay: MRP1-mediated calcein-AM efflux inhibition (selectivity assay), ABCC1-transfected Flp-In 293 cells; assay type: cell-based; settings: probe calcein-AM (cAM), 0.2 μM cAM; for inhibition at 30 min, 1 μM: [Inhibitor] 1 μM; for inhibition at 30 min, 10 μM: [Inhibitor] 10 μM
T3 construct: expressed in transfected cells; host or cells: Flp-In 293
T3 sequence (P33527 whole entry): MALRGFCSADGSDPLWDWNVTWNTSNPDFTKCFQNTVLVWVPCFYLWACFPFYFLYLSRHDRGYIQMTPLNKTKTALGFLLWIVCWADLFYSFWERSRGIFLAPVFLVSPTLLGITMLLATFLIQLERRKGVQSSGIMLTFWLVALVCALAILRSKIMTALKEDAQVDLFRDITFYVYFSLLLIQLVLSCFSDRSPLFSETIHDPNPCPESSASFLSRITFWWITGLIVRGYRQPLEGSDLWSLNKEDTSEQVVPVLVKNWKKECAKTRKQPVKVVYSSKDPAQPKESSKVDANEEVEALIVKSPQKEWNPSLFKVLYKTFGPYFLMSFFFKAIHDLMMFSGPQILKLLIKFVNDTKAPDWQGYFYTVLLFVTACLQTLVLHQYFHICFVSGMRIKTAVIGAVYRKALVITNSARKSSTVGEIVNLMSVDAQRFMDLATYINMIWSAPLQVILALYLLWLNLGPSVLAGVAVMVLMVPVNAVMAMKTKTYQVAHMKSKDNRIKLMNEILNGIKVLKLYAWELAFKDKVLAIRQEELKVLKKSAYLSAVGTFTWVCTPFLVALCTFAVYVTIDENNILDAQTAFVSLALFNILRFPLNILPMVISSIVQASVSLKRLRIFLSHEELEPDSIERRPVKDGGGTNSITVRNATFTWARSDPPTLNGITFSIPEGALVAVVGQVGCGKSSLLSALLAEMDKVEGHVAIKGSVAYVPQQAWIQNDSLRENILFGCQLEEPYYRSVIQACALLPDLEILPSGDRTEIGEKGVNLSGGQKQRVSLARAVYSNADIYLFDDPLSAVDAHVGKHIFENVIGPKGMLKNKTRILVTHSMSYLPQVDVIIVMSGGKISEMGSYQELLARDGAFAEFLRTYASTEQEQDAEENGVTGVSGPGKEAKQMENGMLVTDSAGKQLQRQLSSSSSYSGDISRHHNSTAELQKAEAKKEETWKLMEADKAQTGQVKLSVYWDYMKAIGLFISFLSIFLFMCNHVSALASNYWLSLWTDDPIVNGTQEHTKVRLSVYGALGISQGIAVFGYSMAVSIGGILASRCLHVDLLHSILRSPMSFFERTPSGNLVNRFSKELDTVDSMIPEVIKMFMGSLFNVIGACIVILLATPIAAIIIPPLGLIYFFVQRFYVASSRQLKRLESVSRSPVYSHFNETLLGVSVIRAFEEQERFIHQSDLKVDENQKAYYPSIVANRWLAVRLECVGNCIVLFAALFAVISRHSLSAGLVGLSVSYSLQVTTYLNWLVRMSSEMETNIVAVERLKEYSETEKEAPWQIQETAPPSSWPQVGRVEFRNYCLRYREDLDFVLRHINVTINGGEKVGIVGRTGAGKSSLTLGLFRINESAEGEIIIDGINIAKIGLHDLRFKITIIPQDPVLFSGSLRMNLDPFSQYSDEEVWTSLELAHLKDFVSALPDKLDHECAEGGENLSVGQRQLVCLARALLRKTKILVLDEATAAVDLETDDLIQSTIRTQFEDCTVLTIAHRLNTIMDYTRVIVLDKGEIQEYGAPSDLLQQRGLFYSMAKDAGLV
Experimental: as §1

[1] = hydrolysis of tertiary butyl ester to inactive metabolite; cited from earlier work

| SMILES | melting point | IC50 (BCRP/ABCG2) | inhibition at 30 min, 1 μM (BCRP/ABCG2) | inhibition at 30 min, 10 μM (BCRP/ABCG2) | inhibition at 30 min, 1 μM (P-gp (ABCB1)) | inhibition at 30 min, 10 μM (P-gp (ABCB1)) | inhibition at 30 min, 1 μM (MRP1 (ABCC1)) | inhibition at 30 min, 10 μM (MRP1 (ABCC1)) | inhibition at 30 min, 1 µM (BCRP/ABCG2) | IC50 (BCRP/ABCG2; ABCG2 inhibition, Table 2) | rapidly metabolised, time [1] |
| --- | --- | --- | --- | --- | --- | --- | --- | --- | --- | --- | --- |
| CCC(C)[C@H](NC(=O)c1cc(=O)c2c(OCc3ccccc3Br)cccc2o1)C(=O)OC (stereo partly shown) [5a (series 1)] | 123.1 to 125.7 °C | 100 ± 10 nM | 78 ± 9% | 143 ± 22% | – | – | – | – | – | – | – |
| CCC(C)[C@H](NC(=O)c1cc(=O)c2c(OCc3ccc(Br)cc3)cccc2o1)C(=O)OC (stereo partly shown) [5b (series 1)] | – | 590 ± 80 nM | – | 115 ± 14% | – | – | – | – | – | – | – |
| COC(=O)[C@H](CC(C)C)NC(=O)c1cc(=O)c2c(OCc3ccccc3Br)cccc2o1 [5c (series 1), methyl (5-((2-bromobenzyl)oxy)-4-oxo-4H-chromene-2-carbonylamino)-L-leucinate] | 60.3 to 60.4 °C | 140 ± 40 nM | 115 ± 17% | 102 ± 21.7% | 7 ± 1.1% | 4.8 ± 0.7% | 20.2 ± 2.7% | 19.2 ± 2.2% | 114% | – | – |
| COC(=O)[C@@H](NC(=O)c1cc(=O)c2c(OCc3ccccc3Br)cccc2o1)C(C)C [5d (series 1), methyl (5-((2-bromobenzyl)oxy)-4-oxo-4H-chromene-2-carbonylamino)-L-valinate] | 127 to 128.2 °C | 50 ± 30 nM | 87 ± 7% | 148 ± 6.7% | 7.9 ± 0.7% | 6.5 ± 1.9% | 12.6 ± 1.3% | 17.8 ± 0.9% | 86.6% | – | – |
| COC(=O)[C@H](Cc1ccccc1)NC(=O)c1cc(=O)c2c(OCc3ccc(Br)cc3)cccc2o1 [5f (series 1), methyl (5-((4-bromobenzyl)oxy)-4-oxo-4H-chromene-2-carbonylamino)-L-phenylalaninate] | – | – | – | – | 6.4 ± 1.5% | 6.8 ± 1.4% | 23% | 19% | – | – | – |
| COC(=O)[C@H](Cc1c[nH]c2ccccc12)NC(=O)c1cc(=O)c2c(OCc3ccccc3Br)cccc2o1 [5g (series 1), methyl (5-((2-bromobenzyl)oxy)-4-oxo-4H-chromene-2-carbonylamino)-L-tryptophanate] | 250 to 252.8 °C | – | 93.7 ± 17% | 39.7 ± 3.7% | 7.4 ± 0.3% | 5.3 ± 0.5% | 23 ± 2.5% | 16 ± 2.5% | 93.7% | – | – |
| COC(=O)[C@H](Cc1c[nH]c2ccccc12)NC(=O)c1cc(=O)c2c(OCc3ccc(Br)cc3)cccc2o1 [5h (series 1), methyl (5-((4-bromobenzyl)oxy)-4-oxo-4H-chromene-2-carbonylamino)-L-tryptophanate] | 235.3 to 236.2 °C | 480 ± 70 nM | 92 ± 15% | 87.7 ± 12% | 7.4 ± 2.5% | 6.6 ± 1.4% | 10.3% | 17.4% | 96.4% | – | – |
| COC(=O)[C@@H](Cc1c[nH]c2ccccc12)NC(=O)c1cc(=O)c2c(OCc3ccc(Br)cc3)cccc2o1 [5i (series 1), methyl (5-((4-bromobenzyl)oxy)-4-oxo-4H-chromene-2-carbonylamino)-D-tryptophanate] | 236.2 to 237.9 °C | 290 ± 50 nM | 85 ± 12% | 96.3 ± 19% | 7.2 ± 1.3% | 6.1 ± 1.1% | 11.9% | 12.6% | 84.8% | – | – |
| CCC(C)[C@H](NC(=O)c1cc(=O)c2c(OCc3ccccc3Br)cccc2o1)C(=O)O (stereo partly drawn) [6a (series 1), (5-((2-bromobenzyl)oxy)-4-oxo-4H-chromene-2-carbonylamino)-L-alloisoleucine] | 242.8 to 243.7 °C | – | 0% | 1.6 ± 3.1% | 7.8% | 7.9 ± 2.3% | 17.1% | 13.1 ± 2.4% | – | – | – |
| CC[C@@H](C)[C@H](NC(=O)c1cc(=O)c2c(OCc3ccc(Br)cc3)cccc2o1)C(=O)O [6b (series 1), (5-((4-bromobenzyl)oxy)-4-oxo-4H-chromene-2-carbonyl)-L-alloisoleucine] | – | – | – | – | 7.7 ± 1.9% | 7.1 ± 0.6% | 21.9 ± 4.6% | 20.6 ± 1.2% | – | – | – |
| O=C(N[C@@H](Cc1ccccc1)C(=O)O)c1cc(=O)c2c(OCc3ccc(Br)cc3)cccc2o1 [6d (series 1), (5-((4-bromobenzyl)oxy)-4-oxo-4H-chromene-2-carbonylamino)-L-phenylalanine] | – | – | 4 ± 0.7% | 6.5% | – | – | – | – | – | – | – |
| O=C(N[C@H](Cc1c[nH]c2ccccc12)C(=O)O)c1cc(=O)c2c(OCc3ccc(Br)cc3)cccc2o1 [6e (series 1), (5-((4-bromobenzyl)oxy)-4-oxo-4H-chromene-2-carbonylamino)-D-tryptophan] | 185.5 to 186.7 °C | – | 6.1 ± 0.6% | 11.2 ± 2% | – | – | – | – | – | – | – |
| CC[C@@H](C)[C@H](NC(=O)c1cc(=O)c2c(OCc3ccccc3Br)cccc2o1)C(=O)N[C@H](C(=O)OC)C(C)C [7a (series 2)] | – | 70 ± 10 nM | – | – | 0.1% | 0.2% | 11.1 ± 0.8% | 10.8 ± 2.8% | 84.8 ± 7.4% | – | – |
| COc1ccc2[nH]cc(CCNC(=O)c3cc(=O)c4c(OCc5ccc(Br)cc5Br)cccc4o3)c2c1 [7a (series 3), 5-((2,4-dibromobenzyl)oxy)-N-(2-(5-methoxy-1H-indol-3-yl)ethyl)-4-oxo-4H-chromene-2-carboxamide] | – | 50 ± 10 nM | – | – | – | – | – | – | – | – | – |
| CC[C@@H](C)[C@H](NC(=O)c1cc(=O)c2c(OCc3ccccc3Br)cccc2o1)C(=O)N[C@@H](CC(C)C)C(=O)OC [7b (series 2)] | – | 70 ± 10 nM | – | – | 1.7 ± 2.4% | 2.4 ± 0.5% | 10.3 ± 0.7% | – | 82.5 ± 9.7% | – | – |
| COc1ccc2[nH]cc(CCNC(=O)c3cc(=O)c4c(OCc5cc(Br)cc(Br)c5)cccc4o3)c2c1 [7b (series 3), ((3,5-dibromobenzyl)oxy)-N-(2-(5-methoxy-1H-indol-3-yl)ethyl)-4-oxo-4H-chromene-2-carboxamide] | – | – | – | – | – | – | – | – | – | 100 ± 10 nM | – |
| CC[C@@H](C)[C@H](NC(=O)c1cc(=O)c2c(OCc3ccc(Br)cc3)cccc2o1)C(=O)N[C@H](C(=O)OC)C(C)C [7c (series 2)] | – | 250 ± 100 nM | – | – | 2.4 ± 2.1% | 10.6 ± 0.3% | 11.5 ± 0.4% | 15.3 ± 1.5% | 72.4 ± 7.1% | – | – |
| CC[C@@H](C)[C@H](NC(=O)c1cc(=O)c2c(OCc3ccc(Br)cc3)cccc2o1)C(=O)N[C@@H](CC(C)C)C(=O)OC [7d (series 2), methyl (5-((4-bromobenzyl)oxy)-4-oxo-4H-chromene-2-carbonylamino)-L-alloisoleucyl-L-leucinate] | – | 110 ± 30 nM | – | – | 3.6 ± 0.2% | 5.9 ± 0.1% | 10.9 ± 1.4% | 14.7 ± 1% | 52.3 ± 5.1% | – | – |
| COc1ccc2c3c([nH]c2c1)[C@H](CC(C)C)N1C(=O)[C@H](CCC(=O)OC(C)(C)C)NC(=O)[C@@H]1C3 [Ko143] | – | – | – | – | – | – | – | – | – | – | 60 min |
| COc1ccc2[nH]cc(CCNC(=O)c3cc(=O)c4c(OCc5ccc(Br)cc5)cccc4o3)c2c1 [MBL-II-141, reference compound] | – | – | – | – | – | – | – | – | – | 130 ± 90 nM | – |
